Experimental data published in patent US7160916B2, “Method of increasing bone density or treating osteoporosis” (Yung Shin Pharmaceutical Ind. Co., Ltd., priority 2003, dated 2007).

Legend:
Primary osteoblast cells = assay: Assay of alkaline phosphatase activity in cultured osteoblasts; type: cell-based, rat
Experimental: Primary osteoblast cultures: Primary osteoblast cells were prepared from calvaria of 18-day-old fetal Sprague-Dawley (SD) rats according to the following method: Pregnant rats were put in anesthesia using intraperitoneal injection of trichloroacetaldehyde (200 mg/kg). The calvaria of the fetal rats were then dissected with aseptic technique. Soft tissues were removed under a dissecting microscope. The calvaria were divided into small pieces and then treated with 0.1% collagenase (Sigma Chemical, St. Louis, Mo.) solution for 10 minutes at 37° C. The cells released from the calvariae by two 20-minute sequential collagenase digestions were pooled and filtered through 70 μm nylon filters (Falcon, BD BioSciences, San Jose, Calif.). The cells were then grown on plastic cell culture dishes in 95:5 air-CO2 with Dulbecco's modified Eagle's medium (DMEM) (Gibco, Grand Island, N.Y.) which was supplemented with 20 mM HEPES and 10% heat-inactivated FCS, 2 mM-glutamine, penicillin (100 U/ml) and streptomycin (100 μg/ml) (pH adjusted to 7.6). The cell medium was changed twice a week. Osteoblasts were confirmed by morphology and expression of alkaline phosphatase (ALP). To examine the maturation of osteoblasts, cells were cultured for up to 14 days in a growth medium containing ascorbic acid (50 μg/ml) (Sigma Chemical, St. Louis, Mo.) and β-glycerophosphate (10 mM) (Sigma Chemical, St. Louis, Mo.) and the medium was changed every 3 day. Assay of alkalinephosphatase activity: Cells cultured in 6-well plates in the presence or absence of Indazole 1 were harvested in 1 ml of 0.2% Nonidet P-40 and cell suspension was disrupted by sonication. After centrifugation at 1500 g for 5 min, ALP activity in the supernatant was measured by the method of Lowry et al (1954) J Biol Chem 207:19–37.

Male SD rats = assay: Local injection into proximal tibia, bone histomorphometry (bone growth); type: in vivo, rat; conditions: L-NAME 0.6 nmole/day given with Indazole 1, versus Indazole 1 alone
Experimental: Assay of bone resorption of osteoclast: Osteoclast precursors were isolated from rat long bones as mentioned above. The cells were re-suspended in a complete DMEM medium and plated into a calcium phosphate apatite-coated 24-well plate, OAAS (Oscotec, OCT USA Inc.) at 1×10^6 cells/0.5 ml/well. The cells were cultured for 5 days in the presence of M-CSF (20 ng/ml) plus sRANKL (50 ng/ml). Indazole 1 was injected daily for additional 3 days in the absence of M-CSF and sRANKL. Culture was terminated on day 8 and the remaining cells in the plate were lysed using 1 N NaOH. Five images per well were obtained using an inverted microscope (200×), and resorbed area was measured using an image analyzer. Local injection Male SD rats weighing 70–88 gm were used. Implantation of a cannula (22G) was done from the posteriolateral side into the proximal tibial metaphysis in both limbs of rats anesthetized with pentobarbital. The cannula had its outer end in the subcutaneous tissue. Indazole 1 was percutaneously injected through the cannula into the proximal tibia once/day for 1 week. The same concentration of DMSO diluted with normal saline was injected into the right side for comparison. On day 14, the rats were sacrificed and tibiae were fixed in 10% formaldehyde for 48 h at 4° C. Bone histomorphometry: After formalin fixation of tibia was completed, the tibiae were then decalcified in 0.5 N hydrochloric acid, dehydrated in an ascending series of ethanol solution and acetone, and embedded in paraffin. Serial sections (5 μm) were cut longitudinally and stained with Mayer's hematoxylin-eosin solution (Yang et al. (1993) Calcif Tissue Int 52:57–61). Images of the growth plate and proximal tibia were photographed using a photoMicroGraphic Digitize integrate System (MGDS; Total-Integra Technology Co., Ltd., Taipei, Taiwan). Bone volume measurements were performed on the whole secondary spongiosa, which is located under the primary spongiosa and characterized by a network of larger trabeculae. Bone volumes were calculated using an image analysis software. All measurements were done in a single-blind fashion. Bone growth: Male young rats (SD) weighing 70–90 gm were divided into six groups. The average weight of the rats in each group was 73.9±1.1 gm. Indazole 1 was dissolved in DMSO and diluted with saline to a final concentration of 10 μM. One of the six groups was a control group, and the other groups were punctuated with a needle cannula alone, injected with a vehicle using a needle cannula (day 1, once), injected with Indazole 1 (day 1, once), injected with a vehicle using a needle cannula (days 1–7, daily), and injected with Indazole 1 (days 1–7, daily), respectively. […] Trabecular bone in the secondary spongiosa increased by 90% after local injection of Indazole 1 for 7 days.

COC(=O)[C@@]1(OC)C[C@H]2O[C@]1(C)n1c3ccccc3c3c4c(c5c6ccccc6n2c5c31)C(=O)N(C)C4 [KT5823]
effect on the increase of ALP activity by Indazole 1 (Primary osteoblast cells; KT5823 2 μM): antagonized

COC(=O)[C@@H](N)CCCNC(=N)N[N+](=O)[O-] [L-NAME, N^G-nitro-L-arginine-methylester, reference compound]
effect on the increase of ALP activity by Indazole 1 (Primary osteoblast cells; L-NAME 60 μM): antagonized | effect on enhancement of bone formation in the secondary spongiosa by Indazole 1 (Male SD rats): significantly attenuated

O=c1onc2cnc3ccccc3n12 [ODQ]
effect on the increase of ALP activity by Indazole 1 (Primary osteoblast cells; ODQ 20 μM): antagonized
